In patent publication US20220257529A1, “USE OF C[…] THE TREATMENT OF […] SPASMS” (GW Research Limited, priority 2019, published 2022):
Entries after “also recorded” stand apart in the source; their conditions may differ.

Key:
[1] = Open label, expanded-access program: caregiver logs of cognitive changes, behavioural changes and adverse events; assay type: in vivo, human
Procedure: (§1) Patients were administered botanically derived purified CBD in a 100 mg/mL sesame oil-based solution at an initial dose of five milligrams per kilogram per day (mg/kg/day) in two divided doses. Dose was then increased weekly by 5 mg/kg/day to a goal of 25 mg/kg/day.
(§2) A maximum dose of 50 mg/kg/day could be utilised for patients who were tolerating the medication but had not achieved seizure control; these patients had further weekly titration by 5 mg/kg/day.
During subsequent follow-up visits, parents provided weekly logs regarding cognitive changes, behavioural changes, and adverse events while taking CBD. Additionally, subjects had electroencephalogram (EEG) testing prior to and after the initiation of CBD.

[2] = system: other seizure types (tonic-clonic seizures); assay: Open label, expanded-access program: other seizure types; assay type: in vivo, human
Procedure: as §1
(§3) Seizure frequency, intensity, and duration were recorded by caregivers in a diary during a baseline period of at least 28 days. Changes in seizure frequency relative to baseline were calculated after 2 weeks and 1, 2, 3, 4, 6, 9 and 12 months of treatment. Epileptic spasms were counted by clusters.

[3] = system: refractory epileptic spasms (ES); assay: Open label, expanded-access program: epileptic spasm frequency relative to baseline (caregiver diary); assay type: in vivo, human; conditions: for Percent Change in Spasm Frequency, Average: average of nine patients; for Percent Change in Spasm Frequency at CBD dose, Average: average of patients
Procedure: Subjects were required to be on one or more AEDs at stable doses for a minimum of two weeks prior to baseline and to have stable vagus nerve stimulation (VNS) settings and ketogenic diet ratios for a minimum of four weeks prior to baseline.
as §1, §2
There were nine patients in this study, and each received CBD for at least 12 months. Modifications were made to concomitant AEDs as per clinical indication.
as §3
Patients were defined as responders if they had more than 50% reduction in seizure frequency compared to baseline. […] The percent change in seizure frequency was calculated as follows: […]
The percent change reported at each time interval reflects reported seizure frequency over the past month relative to baseline. The EEG findings were correlated to the corresponding month seizure frequency change as well as the baseline seizure frequency.

[4] = system: epileptic spasms; conditions: first-line treatment of epileptic spasms; cited from earlier work
[5] = system: epileptic spasms; assay: Treatment history of enrolled patients before CBD; assay type: in vivo, human; conditions: before initiation of CBD treatment

C=C(C)[C@@H]1CCC(C)=C[C@H]1c1c(O)cc(CCCCC)cc1O [CBD, cannabidiol]
patients with caregiver-reported sustained improvements in alertness, verbal capacity and communications, cognitive availability, initiation of emotional and physical connections ([1]; four of nine patients): 44%
adverse event leading to dose reduction ([1]; patients 3 and 6 at 45 mg/kg/day and 50 mg/kg/day, reduced to 35 mg/kg/day): diarrhoea
improvement in cognitive and behavioural domains (in words) ([1]; treatment group of the program): significant improvement in cognitive and behavioural domains
freedom from tonic-clonic seizures ([2]; after starting CBD treatment): one patient became seizure free of tonic-clonic seizures
frequency of other seizure types ([2]; other seizure types experienced by the patients): effective in reducing the frequency of other seizure types
Responder rate at CBD dose ([3]; 10 mg/kg/day): 66.70%
Responder rate at CBD dose ([3]; 20 mg/kg/day): 77.80%
Responder rate at CBD dose ([3]; 25 mg/kg/day): 66.70%
Responder rate at CBD dose ([3]; 35 mg/kg/day): 57.10%
Responder rate at CBD dose ([3]; 45 mg/kg/day): 80.00%
Responder rate at CBD dose ([3]; 50 mg/kg/day): 83.30%
Responder Rate (percent of patients with a greater than 50% reduction in spasm frequency) ([3]; 1 month of treatment): 77.8%
Responder Rate (percent of patients with a greater than 50% reduction in spasm frequency) ([3]; 2 months of treatment): 66.7%
Responder Rate (percent of patients with a greater than 50% reduction in spasm frequency) ([3]; 2 weeks of treatment): 66.7%
Responder Rate (percent of patients with a greater than 50% reduction in spasm frequency) ([3]; 3 months of treatment): 55.6%
Responder Rate (percent of patients with a greater than 50% reduction in spasm frequency) ([3]; 6 months of treatment): 77.8%
Responder Rate (percent of patients with a greater than 50% reduction in spasm frequency) ([3]; 9 months of treatment): 77.8%
Responder Rate (percent of patients with a greater than 50% reduction in spasm frequency) ([3]; 12 months of treatment): 77.8%
patients spasm-free ([3]; after 12 months of treatment, five of nine patients): 55.6%
patients epileptic spasm-free ([3]; after one month of CBD treatment): One patient was epileptic spasm-free
patients epileptic spasm-free ([3]; after two months of CBD treatment): two other patients were epileptic spasm-free
Percent Change in Spasm Frequency, Average ([3]; 1 month): −67.20%
Percent Change in Spasm Frequency, Average ([3]; 2 months): −64.10%
Percent Change in Spasm Frequency, Average ([3]; 2 weeks): −67.50%
Percent Change in Spasm Frequency, Average ([3]; 3 months): −59.00%
Percent Change in Spasm Frequency, Average ([3]; 6 months): −73.70%
Percent Change in Spasm Frequency, Average ([3]; 9 months): −61.53%
Percent Change in Spasm Frequency, Average ([3]; 12 months): −51.35%
Percent Change in Spasm Frequency at CBD dose, Average ([3]; 10 mg/kg/day): −67.50%
Percent Change in Spasm Frequency at CBD dose, Average ([3]; 20 mg/kg/day): −67.20%
Percent Change in Spasm Frequency at CBD dose, Average ([3]; 25 mg/kg/day): −61.40%
Percent Change in Spasm Frequency at CBD dose, Average ([3]; 35 mg/kg/day): −56.00%
Percent Change in Spasm Frequency at CBD dose, Average ([3]; 45 mg/kg/day): −80.90%
Percent Change in Spasm Frequency at CBD dose, Average ([3]; 50 mg/kg/day): −50.20%
effect on number of epileptic spasms (in words) ([3]; overall conclusion of the program, adjunctive to AEDs): significantly reduce the number of epileptic spasms; also recorded: significant reduction in epileptic spasms
seizure freedom in patients suffering from TSC ([3]; patients 6, 7 and 8, after 12 months of treatment): all three were completely seizure free

C=CC(N)CCC(=O)O (stereo not shown) [VGB, vigabatrin]
significant risks [4]: visual field defects
outcome of treatment before CBD [5]: lack of efficacy

Adrenocorticotropin hormone (SYSMEHFRWGKPVGKKRRPVKVYPNGAEDESAEAFPLEF; Corticotropin; UniProt P01189 138-176, looked up) [ACTH, preferred first-line treatment of epileptic spasms]
significant risks [4]: increased risk of infection
outcome of treatment before CBD [5]: without significant benefit
